Measured values published in US7745619B2, “Vinca derivatives” (priority 2003, dated 2010).
Read-outs that look alike come from different tables or passages of the source.

Key:
[1] = system: HeLa S-3 cells; assay: HeLa GI50 determination (SRB growth inhibition); assay type: cell-based, human
Protocol: Growth inhibition (GI50) values were measured on the human cervical carcinoma cell line, HeLa S-3, which were selected for growth on plastic. The HeLa cell assay was based on the description of Skehan et al., J. Natl. Cancer Inst., 82:1107-12 (1990), which is hereby incorporated by reference in its entirety. HeLa cells were plated at 2×10^4 cells/well in 96 well plates. One day later, a control plate was fixed by the addition of TCA to 5%. After five rinses with tap water, the plate was air-dried and stored at 4° C. Test compounds were added to the remaining plates at 10-fold dilutions. Two days later, all plates were fixed as described above. Cells were then stained by the addition of 100 μL per well of 0.4% sulforhodamine B (SRB) in 1% acetic acid for 30 min at 4° C. Wells were then quickly rinsed 5× with 1% acetic acid and allowed to air dry. The SRB was then solubilized by the addition of 100 μL per well of unbuffered 10 mM Tris base. Dye was quantified by measuring absorbance at 490 nm on a Molecular Devices microplate reader. Growth inhibition was calculated according to the following equation: GI=100×(T−T0)/(C−T0), where the optical density (OD) of the test well after 2 days of treatment was T, the OD of the wells in the control plate on day 0 was T0 and C was the OD of untreated wells. Plots of percent growth inhibition versus inhibitor concentration were used to determine the GI50.

[2] = system: MCF-7 cells; assay: MCF-7 GI50 determination (crystal violet growth inhibition); assay type: cell-based, human
Protocol: Growth inhibition (GI50) values were measured on the human breast carcinoma line, MCF-7. MCF-7 cells were plated at 2×10^4 cells/well in 96 well plates and grown for 24 hours in drug free media. On day 2, test compounds were added to the plates at 10-fold dilutions. Four days later, cells were fixed by the addition of glutaraldehyde to 0.75%. After 30 min, the fixed cells were extensively rinsed with distilled water and dried at room temperature for one hour. The cells were then stained with a 0.2% crystal violet solution for one hour at room temperature. Unbound stain was removed by ten rinses with tap water and plates were allowed to air dry for 30 min. The crystal violet was then solubilized by the addition of 10% acetic acid for 15 min and quantified by measuring absorbance at 570 nm on a Molecular Devices microplate reader. Growth inhibition was calculated according to the following equation: GI=[…], where the optical density (OD) of the test well after 4 days of treatment was T, the OD of the wells in the control plate on day 0 was T0. Plots of percent growth inhibition versus inhibitor concentration were used to determine the GI50.

[3] = Homo sapiens, HeLa S3, 48 h, read-out: HeLa Cells GI50 (nM)
[4] = Homo sapiens, MCF7, 96 h, read-out: MCF-7 Cells GI50 (nM)
[5] = Homo sapiens, HeLa S3, 48 h, HeLa S-3 cells, 2 days of treatment, sulforhodamine B, read-out: HeLa Cells GI50
[6] = Homo sapiens, MCF7, 96 h, MCF-7 cells, 4 days of treatment, crystal violet, read-out: MCF-7 Cells GI50

Compound | GI50 [1, 3] [nM] | GI50 [2, 4] [nM] | GI50 [1, 5] [nM] | GI50 [2, 6] [nM] | also measured
CC[C@]1(O)C[C@H]2CN(CCc3c([nH]c4ccc(-c5cccc(O)c5)cc34)[C@@](C(=O)OC)(c3cc4c(cc3OC)N(C)[C@H]3[C@@](O)(C(=O)OC)[C@H](OC(C)=O)[C@]5(CC)C=CCN6CC[C@]43[C@@H]65)C2)C1 [Example 12, 12′-(3-hydroxyphenyl) vinblastine] | 200 | 300 | – | – | –
CC[C@]1(O)C[C@H]2CN(CCc3c([nH]c4ccc(C)cc34)[C@@](C(=O)OC)(c3cc4c(cc3OC)N(C=O)[C@H]3[C@@](O)(C(=O)OC)[C@H](OC(C)=O)[C@]5(CC)C=CCN6CC[C@]43[C@@H]65)C2)C1 [Example 76, 12′-methylvincristine] | – | – | 1 | 3 | –
CC[C@]1(O)C[C@H]2CN(CCc3c([nH]c4ccc(C(=O)CC(C)C)cc34)[C@@](C(=O)OC)(c3cc4c(cc3OC)N(C=O)[C@H]3[C@@](O)(C(=O)OC)[C@H](OC(C)=O)[C@]5(CC)C=CCN6CC[C@]43[C@@H]65)C2)C1 [Example 71, 12′-(3-methylbutanoyl) vincristine] | 200 | 100 | – | – | –
CC[C@]1(O)C[C@H]2CN(CCc3c([nH]c4ccc(N5CCCCC5)cc34)[C@@](C(=O)OC)(c3cc4c(cc3OC)N(C)[C@H]3[C@@](O)(C(=O)OC)[C@H](OC(C)=O)[C@]5(CC)C=CCN6CC[C@]43[C@@H]65)C2)C1 [Example 85, 12′-(1-piperidinyl) vinblastine] | 20 | 30 | – | – | –
CC[C@]1(O)C[C@H]2CN(CCc3c([nH]c4ccc(C=O)cc34)[C@@](C(=O)OC)(c3cc4c(cc3OC)N(C=O)[C@H]3[C@@](O)(C(=O)OC)[C@H](OC(C)=O)[C@]5(CC)C=CCN6CC[C@]43[C@@H]65)C2)C1 [Example 62, 12′-formylvincristine] | – | – | 10 | 30 | –
CC[C@]1(O)C[C@H]2CN(CCc3c([nH]c4ccc(/C=C/CNC(=O)OC(C)(C)C)cc34)[C@@](C(=O)OC)(c3cc4c(cc3OC)N(C)[C@H]3[C@@](O)(C(=O)OC)[C@H](OC(C)=O)[C@]5(CC)C=CCN6CC[C@]43[C@@H]65)C2)C1 [Example 31, 12′-(3-tert-butoxycarbonylaminopropenyl) vinblastine] | 600 | 300 | – | – | –
CC[C@]1(O)C[C@H]2CN(CCc3c([nH]c4ccc(N5CCOCC5)cc34)[C@@](C(=O)OC)(c3cc4c(cc3OC)N(C)[C@H]3[C@@](O)(C(=O)OC)[C@H](OC(C)=O)[C@]5(CC)C=CCN6CC[C@]43[C@@H]65)C2)C1 [Example 86, 12′-(4-morpholino) vinblastine] | 30 | 50 | – | – | –
CCOC(=O)/C=C/c1ccc2[nH]c3c(c2c1)CCN1C[C@H](C[C@@](O)(CC)C1)C[C@]3(C(=O)OC)c1cc2c(cc1OC)N(C)[C@H]1[C@@](O)(C(=O)OC)[C@H](OC(C)=O)[C@]3(CC)C=CCN4CC[C@]21[C@@H]43 [Example 26, 12′-(2-ethoxycarbonylvinyl)vinblastine] | 165 | 70 | – | – | –
CC[C@]1(O)C[C@H]2CN(CCc3c([nH]c4ccc(C#N)cc34)[C@@](C(=O)OC)(c3cc4c(cc3OC)N(C)[C@H]3[C@@](O)(C(=O)OC)[C@H](OC(C)=O)[C@]5(CC)C=CCN6CC[C@]43[C@@H]65)C2)C1 [Example 65, 12′-cyanovinblastine] | – | – | 3 | 3 | –
CC[C@]1(O)C[C@H]2CN(CCc3c([nH]c4ccc(SCCCO)cc34)[C@@](C(=O)OC)(c3cc4c(cc3OC)N(C)[C@H]3[C@@](O)(C(=O)OC)[C@H](OC(C)=O)[C@]5(CC)C=CCN6CC[C@]43[C@@H]65)C2)C1 [Example 33, 12′-(4-hydroxypropylsulfanyl)vinblastine] | – | – | 20 | 30 | –
CC[C@]1(O)C[C@H]2CN(CCc3c([nH]c4cc(I)c(I)cc34)[C@@](C(=O)OC)(c3cc4c(cc3OC)N(C)[C@H]3[C@@](O)(C(=O)OC)[C@H](OC(C)=O)[C@]5(CC)C=CCN6CC[C@]43[C@@H]65)C2)C1 [Example 91, 12′,13′-diiodovinblastine] | – | – | 60 | 200 | –
CC[C@]1(O)C[C@H]2CN(CCc3c([nH]c4ccc(C#N)cc34)[C@@](C(=O)OC)(c3cc4c(cc3OC)N(C=O)[C@H]3[C@@](O)(C(=O)OC)[C@H](OC(C)=O)[C@]5(CC)C=CCN6CC[C@]43[C@@H]65)C2)C1 [Example 66, 12′-cyanovincristine] | – | – | 10 | 4 | –
CC#Cc1ccc2[nH]c3c(c2c1)CCN1C[C@H](C[C@@](O)(CC)C1)C[C@]3(C(=O)OC)c1cc2c(cc1OC)N(C)[C@H]1[C@@](O)(C(=O)OC)[C@H](OC(C)=O)[C@]3(CC)C=CCN4CC[C@]21[C@@H]43 [Example 18, 12′-propynylvinblastine] | – | – | 300 | 300 | –
CC[C@]1(O)C[C@H]2CN(CCc3c([nH]c4ccc(SCCN(C)C)cc34)[C@@](C(=O)OC)(c3cc4c(cc3OC)N(C)[C@H]3[C@@](O)(C(=O)OC)[C@H](OC(C)=O)[C@]5(CC)C=CCN6CC[C@]43[C@@H]65)C2)C1 [Example 48, 12′-(2-(N,N-dimethylamino)ethylsulfanyl)vinblastine] | 30 | 40 | – | – | –
CC[C@]1(O)C[C@H]2CN(CCc3c([nH]c4ccc(C(=O)OCC(Cl)(Cl)Cl)cc34)[C@@](C(=O)OC)(c3cc4c(cc3OC)N(C)[C@H]3[C@@](O)(C(=O)OC)[C@H](OC(C)=O)[C@]5(CC)C=CCN6CC[C@]43[C@@H]65)C2)C1 [Example 68, 12′-(2,2,2-trichloroethylcarbonyl)vinblastine] | 30 | 200 | – | – | –
di(12′-vinblastine) disulfide [Example 60] | – | – | – | – | GI50 ([1]; HeLa S-3 cells, 2 days of treatment, sulforhodamine B, read-out: HeLa Cells GI50): 10 nM; GI50 ([2]; MCF-7 cells, 4 days of treatment, crystal violet, read-out: MCF-7 Cells GI50): 20 nM
CC[C@]1(O)C[C@H]2CN(CCc3c([nH]c4ccc(-c5ccc(F)cc5)cc34)[C@@](C(=O)OC)(c3cc4c(cc3OC)N(C)[C@H]3[C@@](O)(C(=O)OC)[C@H](OC(C)=O)[C@]5(CC)C=CCN6CC[C@]43[C@@H]65)C2)C1 [Example 10, 12′-(4-fluorophenyl) vinblastine] | 250 | 95 | – | – | –
CC[C@]1(O)C[C@H]2CN(CCc3c([nH]c4ccc(C#CC(C)C)cc34)[C@@](C(=O)OC)(c3cc4c(cc3OC)N(C)[C@H]3[C@@](O)(C(=O)OC)[C@H](OC(C)=O)[C@]5(CC)C=CCN6CC[C@]43[C@@H]65)C2)C1 [Example 20, 12′-(3-methylbutynyl) vinblastine] | 500 | > 1000 | – | – | –
CC[C@]1(O)C[C@H]2CN(CCc3c([nH]c4ccc(Nc5ccccc5)cc34)[C@@](C(=O)OC)(c3cc4c(cc3OC)N(C)[C@H]3[C@@](O)(C(=O)OC)[C@H](OC(C)=O)[C@]5(CC)C=CCN6CC[C@]43[C@@H]65)C2)C1 [Example 82, 12′-(phenylamino) vinblastine] | 300 | 600 | – | – | –
CC[C@]1(O)C[C@H]2CN(CCc3c([nH]c4ccc(CNC(C)C)cc34)[C@@](C(=O)OC)(c3cc4c(cc3OC)N(C)[C@H]3[C@@](O)(C(=O)OC)[C@H](OC(C)=O)[C@]5(CC)C=CCN6CC[C@]43[C@@H]65)C2)C1 [Example 64, 12′-(N-isopropylaminomethyl)vinblastine] | – | – | 900 | > 1000 | –
CC[C@]1(O)C[C@H]2CN(CCc3c([nH]c4ccc(Sc5ccccc5Cl)cc34)[C@@](C(=O)OC)(c3cc4c(cc3OC)N(C=O)[C@H]3[C@@](O)(C(=O)OC)[C@H](OC(C)=O)[C@]5(CC)C=CCN6CC[C@]43[C@@H]65)C2)C1 [Example 56, 12′-(2-chlorophenylsulfanyl)vincristine] | 30 | 30 | – | – | –
CC[C@]1(O)C[C@H]2CN(CCc3c([nH]c4ccc(SCC(=O)OC(C)(C)C)cc34)[C@@](C(=O)OC)(c3cc4c(cc3OC)N(C)[C@H]3[C@@](O)(C(=O)OC)[C@H](OC(C)=O)[C@]5(CC)C=CCN6CC[C@]43[C@@H]65)C2)C1 [Example 44, 12′-(tert-butoxycarbonylmethylsulfanyl) vinblastine] | 70 | 100 | – | – | –
